Data: US5178662A, “Benzaldehyde acetal compounds, preparation process thereof, and herbicidal compositions containing the same as active ingredients” (Mitsui Toatsu Chemicals, Inc., priority 1990, dated 1993)

Tests used:
[1] = tested on: ALS (acetolactate syntase) from barnyardgrass seedlings; assay: ALS (acetolactate syntase) inhibition test, barnyardgrass enzyme; format: biochemical; conditions: 10,000 ppm (0.5 μg/0.5 ml) of compound; 1 hour at 30° C.; absorbance at 525 nm
Method: (§1) To determine the selectivity in enzyme level between crops and weeds, an ALS inhibition test was conducted using pea as a typical broadleaf crop and barnyardgrass as a representative gramineous weeds.
(§2) After seeds of pea and barnyardgrass were allowed to germinate at 25° C. for 8-14 days in a dark place, partially-purified suspensions (Suspensions A) of acetolactate syntase were separately obtained from the seedlings in accordance with the procedures described in the literature, Plant Physiology, 75, 827-831. In a test tube, 0.5 mg of one of test compounds was weighed, followed by the addition of 0.15 ml of a 20 mM K2 HPO4 solution and 0.25 ml of a reaction substrate medium which consisted of 40 mM of K2 HPO4, 40 mM of sodium pyruvate, 1 mM of TPP, 1 mM of MgCl2 and 20 μM of FAD so that 0.4 ml of a reaction solution (Solution B) was prepared. Added to 0.4 ml of Solution B was 0.1 ml of Suspension A. After the resultant mixture was shaken for 1 hour in a thermostat water bath controlled at 30° C., 50 μl of 6N sulfuric acid were added to terminate the reaction.
(§3) Next, the test tube with the reaction-terminated liquid mixture contained therein was transferred into a thermostat water bath controlled at 60° C. and was heated for 15 minutes. Thereafter, 0.5 ml of a 0.5% creatine solution and 0.5 ml of a 5% alkaline α-naphthol solution were added, and the resultant mixture was maintained at 60° C. for 15 minutes. As a result, the test solution developed a pink-to-red color. After the above operation, the absorbance of the test solution at 525 nm was measured by a spectrophotometer (Absorbance 1 of Test Compound).
(§4) Further, the absorbance (Absorbance 2 of Blank) of a solution obtained by subjecting a portion of Solution B to the above procedures without addition of any test compound and the absorbance (Absorbance 3 of sulfuric acid) of another solution obtained by subjecting another portion of Solution B to the above procedures which using 50 μl of 6N sulfuric acid as a test compound were also measured.

[2] = tested on: ALS (acetolactate syntase) from pea seedlings; assay: ALS (acetolactate syntase) inhibition test, pea enzyme; format: biochemical; conditions: 10,000 ppm (0.5 μg/0.5 ml) of compound; 1 hour at 30° C.; absorbance at 525 nm
Method: as §1, §2, §3, §4

[3] = tested on: Amaranth (Amaranthus viridis); assay: Upland soil application test, amaranth; format: in vivo; conditions: 1200 h, soil application one day after seeding, 50 g ai/a, wettable powder, fresh weight on 50th day after spray, read-out: Herbicidal effects Amaranth (Amaranthus viridis)
Method: (§5) Resin-made 1/1000-are pots were filled with the soil of an upland field. After they were fertilized, cotton and soybean were seeded and 3 cm soil covering was applied. In addition, amaranth, common lambs-quarters, barnyardgrass, green foxtail, large crabgrass and johnsongrass were seeded and 1 cm soil covering was applied. One day later, a wettable powder prepared from a predetermined amount of each test compound in a similar manner to the procedures described in Formulation Example 1 was diluted with water and then sprayed evenly at an application rate equal to 10 l per are onto the surface of the soil by means of a pressure-operated sprayer. The weeds and crops were allowed to grow in a green house and influence to them were observed on the 50th day after the spray. The degree of damages of each test plant and the degree of injury to each crop were determined by measuring fresh weight in each group and indicated by % calculated according to the following formula. [formula]

[4] = tested on: common lambsquarters; assay: Upland soil application test, common lambsquarters; format: in vivo; conditions: Chenopodium album, 1200 h; soil application one day after seeding, 50 g ai/a, wettable powder, fresh weight on 50th day after spray; read-out: Herbicidal effects Common lambquarters
Method: as §5

[5] = tested on: Barnyardgrass (Echinochloa crusgalli); assay: Upland soil application test, barnyardgrass; format: in vivo; conditions: Echinochloa crus-galli, 1200 h; soil application one day after seeding, 50 g ai/a, wettable powder, fresh weight on 50th day after spray; read-out: Herbicidal effects Barnyardgrass (Echinochloa crusgalli)
Method: as §5

[6] = tested on: Foxtail (Setaria viridis); assay: Upland soil application test, green foxtail; format: in vivo; conditions: 1200 h, soil application one day after seeding, 50 g ai/a, wettable powder, fresh weight on 50th day after spray, read-out: Herbicidal effects Foxtail (Setaria viridis)
Method: as §5

[7] = tested on: Crabgrass (Digitaria adscendens); assay: Upland soil application test, large crabgrass; format: in vivo; conditions: 1200 h, soil application one day after seeding, 50 g ai/a, wettable powder, fresh weight on 50th day after spray, read-out: Herbicidal effects Crabgrass (Digitaria adscendens)
Method: as §5

[8] = tested on: Johnsongrass; assay: Upland soil application test, johnsongrass; format: in vivo; conditions: Sorghum halepense, 1200 h; soil application one day after seeding, 50 g ai/a, wettable powder, fresh weight on 50th day after spray; read-out: Herbicidal effects Johnsongrass
Method: as §5

[9] = tested on: Soybean (Glycine max); assay: Upland soil application test, crop injury soybean; format: in vivo; conditions: soil application one day after seeding, 50 g ai/a, wettable powder, fresh weight on 50th day after spray
Method: as §5

[10] = tested on: Cotton (Gossypium indicum); assay: Upland soil application test, crop injury cotton; format: in vivo; conditions: soil application one day after seeding, 50 g ai/a, wettable powder, fresh weight on 50th day after spray
Method: as §5

[11] = tested on: Amaranth (Amaranthus viridis); assay: Upland foliar application test, amaranth; format: in vivo; conditions: 960 h, foliar application at stage of 2-3 leaves, 50 g ai/a, emulsion, 40th day after spray, read-out: Herbicidal effects Amaranth (Amaranthus viridis)
Method: as §5
(§6) Resin-made 1/1000-are pots were filled with the soil of an upland field. After they were fertilized, cotton and soybean were seeded and 3 cm soil covering was applied. Five days later, amaranth, common lambsquarters, barnyardgrass, green foxtail, large crabgrass and johnsongrass were seeded and 1 cm soil covering was applied. They were allowed to grow in a green house. When each plant grew to the stage of 2-3 leaves, an emulsion formulated from a predetermined amount of each test compound in a similar manner to the procedures described in Formulation Example 11 was diluted with water and then sprayed at a predetermined application rate by means of a pressure-operated sprayer. The application rate was controlled at 5 l per are. Influence to the crops and weeds were observed on the 40th day after the spray of the herbicides. The results are shown in Table 4 in which the degree of damages of each test plant and the degree of injury to each crop are shown in a similar manner to Test 2.

[12] = tested on: common lambsquarters; assay: Upland foliar application test, common lambsquarters; format: in vivo; conditions: Chenopodium album, 960 h; foliar application at stage of 2-3 leaves, 50 g ai/a, emulsion, 40th day after spray; read-out: Herbicidal effects Common lambquarters
Method: as §6

[13] = tested on: Barnyardgrass (Echinochloa crusgalli); assay: Upland foliar application test, barnyardgrass; format: in vivo; conditions: Echinochloa crus-galli, 960 h; foliar application at stage of 2-3 leaves, 50 g ai/a, emulsion, 40th day after spray; read-out: Herbicidal effects Barnyardgrass (Echinochloa crusgalli)
Method: as §6

[14] = tested on: Foxtail (Setaria viridis); assay: Upland foliar application test, green foxtail; format: in vivo; conditions: 960 h, foliar application at stage of 2-3 leaves, 50 g ai/a, emulsion, 40th day after spray, read-out: Herbicidal effects Foxtail (Setaria viridis)
Method: as §5, §6

[15] = tested on: Crabgrass (Digitaria adscendens); assay: Upland foliar application test, large crabgrass; format: in vivo; conditions: 960 h, foliar application at stage of 2-3 leaves, 50 g ai/a, emulsion, 40th day after spray, read-out: Herbicidal effects Crabgrass (Digitaria adscendens)
Method: as §5, §6

[16] = tested on: Johnsongrass; assay: Upland foliar application test, johnsongrass; format: in vivo; conditions: Sorghum halepense, 960 h; foliar application at stage of 2-3 leaves, 50 g ai/a, emulsion, 40th day after spray; read-out: Herbicidal effects Johnsongrass
Method: as §6

[17] = tested on: Soybean (Glycine max); assay: Upland foliar application test, crop injury soybean; format: in vivo; conditions: foliar application at stage of 2-3 leaves, 50 g ai/a, emulsion, 40th day after spray
Method: as §6

[18] = tested on: Cotton (Gossypium indicum); assay: Upland foliar application test, crop injury cotton; format: in vivo; conditions: foliar application at stage of 2-3 leaves, 50 g ai/a, emulsion, 40th day after spray
Method: as §5, §6

[19] = tested on: johnsongrass emerging from rhizome; assay: Application test on johnsongrass emerging from rhizome; format: in vivo; conditions: foliar application at stage of 4-5 leaves, application rate of active ingredient 20 (unit not given), emulsion, 50th day after spray
Method: as §5
Resin-made 1/1000-are pots were filled with the soil of an upland field. After they were fertilized, rhizome of johnsongrass were transplanted to the pots and 3 cm soil covering was applied. They were allowed to grow in a green house. When each johnsongrass grew to the stage of 4-5 leaves, an emulsion formulated from a predetermined amount of each test compound in a similar manner to the procedures described in Formulation Example 11 was diluted with water and then sprayed at a predetermined application rate by means of a pressure-operated sprayer. The application rate was controlled at 5 l per are. The effect of each compound against the johnsongrass emerging from its rhizome was observed on the 50th day after the spray of the herbicides. The results are shown in Table 5 in which the herbicidal effect against johnsongrass is shown in a similar manner to Test 2.

SMILES	Enzymoreaction inhibition rate (%) Barnyardgrass [1] [%]	Enzymoreaction inhibition rate (%) Pea [2] [%]	pest or weed control at 5000 g/ha [3] [%]	pest or weed control at 5000 g/ha [4] [%]	pest or weed control at 5000 g/ha [5] [%]	pest or weed control at 5000 g/ha [6] [%]	pest or weed control at 5000 g/ha [7] [%]	pest or weed control at 5000 g/ha [8] [%]	Crop injury Soybean (Glycine max) [9] [%]	Crop injury Cotton (Gossypium indicum) [10] [%]	pest or weed control at 5000 g/ha [11] [%]	pest or weed control at 5000 g/ha [12] [%]	pest or weed control at 5000 g/ha [13] [%]	pest or weed control at 5000 g/ha [14] [%]	pest or weed control at 5000 g/ha [15] [%]	pest or weed control at 5000 g/ha [16] [%]	Crop injury Soybean (Glycine max) [17] [%]	Crop injury Cotton (Gossypium indicum) [18] [%]	Herbicidal effect against johnsongrass emerging from rhizome [19] [%]
CCCOC(OCCC)c1ccccc1Oc1nc(OC)cc(OC)n1 [Compound No. 1]	100	0	100	100	100	100	100	100	0	0	100	100	100	100	100	100	0	0	100
COC(=O)c1ccccc1Oc1nc(OC)cc(OC)n1 [Comp. Comp'd A, reference compound]	73	72	100	100	100	100	100	100	100	100	100	100	100	100	100	100	100	100	60
